The text below walks through data of ChEMBL document CHEMBL4421727, “Small molecule inhibitors of 8-oxoguanine dna glycosylase-1 (ogg1)” (2017).

By IC50 is commonly meant the concentration that inhibits the measured activity by half.

Structures are written as SMILES. Activity calls are given as the source filed them. The calls are words filed in the database; no cut-off is given here. Where only a bound is given, the exact number is not on record here.

Assay [1] has as its target T1, Endonuclease III-like protein 1 (Homo sapiens) (UniProt P78549).
T1 sequence (whole entry): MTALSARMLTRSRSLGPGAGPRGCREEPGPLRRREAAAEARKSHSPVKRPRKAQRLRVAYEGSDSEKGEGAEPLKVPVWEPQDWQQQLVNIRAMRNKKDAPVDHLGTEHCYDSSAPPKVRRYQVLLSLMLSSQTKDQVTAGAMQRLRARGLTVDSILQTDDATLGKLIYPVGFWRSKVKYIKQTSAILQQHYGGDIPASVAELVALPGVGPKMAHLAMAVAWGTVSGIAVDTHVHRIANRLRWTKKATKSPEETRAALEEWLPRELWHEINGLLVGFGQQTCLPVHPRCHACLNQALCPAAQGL
As to the kind of experiment: Inhibition of NTH1 (unknown origin) assessed as remaining enzyme activity at 50 uM incubated for 40 mins by TAMRA fluorescence-based assay.

Assay [2] concerns the target T2, Endonuclease 8-like 1 (Homo sapiens, UniProt Q96FI4). As to the kind of experiment: Inhibition of NEIL1 (unknown origin) assessed as remaining enzyme activity at 50 uM using Sp/Gh substrate incubated for 40 mins by TAMRA fluorescence-based assay.
Assay [3] in a line: Binding affinity to duplex DNA (unknown origin) assessed as induction of DNA intercalation at 50 uM incubated for 30 mins by gel electrophoresis.
For assay [4], the target named is T3, N-glycosylase/DNA lyase (Homo sapiens, UniProt O15527). As to the kind of experiment: Inhibition of human OGG1 assessed as protection against NaOH-mediated strand cleavage using AP-containing substrate. More on the design: scale not given: the % may be the effect or the level left.
T3 sequence (O15527 whole entry): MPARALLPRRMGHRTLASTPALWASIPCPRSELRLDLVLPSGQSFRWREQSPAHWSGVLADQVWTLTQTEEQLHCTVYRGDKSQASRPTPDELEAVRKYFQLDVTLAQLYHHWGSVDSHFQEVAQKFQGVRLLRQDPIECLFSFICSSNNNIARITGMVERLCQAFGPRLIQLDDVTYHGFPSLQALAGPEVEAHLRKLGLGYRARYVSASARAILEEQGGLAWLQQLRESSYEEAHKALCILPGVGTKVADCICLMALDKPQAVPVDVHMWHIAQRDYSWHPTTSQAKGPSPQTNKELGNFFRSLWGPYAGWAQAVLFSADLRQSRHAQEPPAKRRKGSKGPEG
The target in assay [5] is T3, N-glycosylase/DNA lyase. Description: Inhibition of human OGG1 assessed as reduction in free 8-oxo-Gua release using gamma-irradiated calf thymus DNA substrate incubated for 1 hr by GC-MS/MS assay.
For assay [6], the target named is T3, N-glycosylase/DNA lyase. As to the kind of experiment: Inhibition of human OGG1 assessed as reduction in free Inhibition of human OGG1 assessed as reduction in free FapyGua release using gamma-irradiated calf thymus DNA substrate incubated for 1 hr by GC-MS/MS assay.
Assay [7] addresses T3, N-glycosylase/DNA lyase. Description: Inhibition of human OGG1 assessed as reduction in AP lyase activity using AP-containing substrate.
Assay [8] concerns the target T2, Endonuclease 8-like 1. Description: Inhibition of NEIL1 (unknown origin) assessed as effect on DNA lesions per 10^6 DNA bases using FapyAde substrate incubated for 1 hr by GC-MS/MS assay.
Assay [9] concerns the target T2, Endonuclease 8-like 1. Description: Inhibition of NEIL1 (unknown origin) assessed as effect on DNA lesions per 10^6 DNA bases using 5-OH-5-MeHyd substrate incubated for 1 hr by GC-MS/MS assay.
The target of assay [10] is T1, Endonuclease III-like protein 1 (Homo sapiens). Description: Inhibition of NTH1 (unknown origin) assessed as effect on DNA lesions per 10^6 DNA bases using FapyGua substrate incubated for 1 hr by GC-MS/MS assay.
Assay [11] concerns the target T2, Endonuclease 8-like 1. Description: Inhibition of NEIL1 (unknown origin) using Sp/Gh substrate incubated for 40 mins by TAMRA fluorescence-based assay.
Assay [12] addresses T1, Endonuclease III-like protein 1 (Homo sapiens). As to the kind of experiment: Inhibition of NTH1 (unknown origin) assessed as effect on DNA lesions per 10^6 DNA bases using 5-hydroxycytosine substrate incubated for 1 hr by GC-MS/MS assay.
For assay [13] the target is unchanged. Description: Inhibition of NTH1 (unknown origin) assessed as effect on DNA lesions per 10^6 DNA bases using 5-OH-5-MeHyd substrate incubated for 1 hr by GC-MS/MS assay.
In assay [14] the target is T4, Formamidopyrimidine-DNA glycosylase (Escherichia coli (strain K12)) (UniProt P05523).
T4 sequence (whole entry): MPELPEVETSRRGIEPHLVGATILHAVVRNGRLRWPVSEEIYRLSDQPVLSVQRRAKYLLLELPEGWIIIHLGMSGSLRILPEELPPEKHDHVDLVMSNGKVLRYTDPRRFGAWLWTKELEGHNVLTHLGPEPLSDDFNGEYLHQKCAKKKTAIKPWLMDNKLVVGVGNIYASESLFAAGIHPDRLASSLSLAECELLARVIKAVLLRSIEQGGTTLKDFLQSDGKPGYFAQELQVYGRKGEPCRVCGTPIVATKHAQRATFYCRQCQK
As to the kind of experiment: Inhibition of Escherichia coli FPG assessed as remaining enzyme activity at 50 uM using 8-oxo-Gua substrate incubated for 10 mins by TAMRA fluorescence-based assay.

The target in assay [15] is T1, Endonuclease III-like protein 1 (Homo sapiens). Description: Inhibition of NTH1 (unknown origin) assessed as effect on DNA lesions per 10^6 DNA bases using FapyAde substrate incubated for 1 hr by GC-MS/MS assay.
Assay [16] has as its target T2, Endonuclease 8-like 1. Description: Inhibition of NEIL1 (unknown origin) assessed as effect on DNA lesions per 10^6 DNA bases using FapyGua substrate incubated for 1 hr by GC-MS/MS assay.
In assay [17] the target is T4, Formamidopyrimidine-DNA glycosylase (Escherichia coli (strain K12)). As to the kind of experiment: Inhibition of Escherichia coli FPG assessed as reduction in enzyme-mediated incision using compound pre-incubated with 8-oxo-Gua substrate for 30 mins at 37 degC followed by enzyme addition.
The target in assay [18] is T5, Endonuclease III-like protein 1 (Homo sapiens, UniProt P78549).
T5 sequence (P78549 whole entry): T1 sequence (whole entry)
Description: Inhibition of NTH1 (unknown origin) incubated for 40 mins by TAMRA fluorescence-based assay.

In assay [19] the target is T6, Formamidopyrimidine-DNA glycosylase (Escherichia coli (strain K12), UniProt P05523).
T6 sequence (P05523 whole entry): T4 sequence (whole entry)
As to the kind of experiment: Inhibition of Escherichia coli FPG using 8-oxo-Gua substrate incubated for 10 mins by TAMRA fluorescence-based assay.

Assay [20] deals with T1, Endonuclease III-like protein 1 (Homo sapiens). Description: Inhibition of NTH1 (unknown origin) assessed as effect on DNA lesions per 10^6 DNA bases using thymine glycol substrate incubated for 1 hr by GC-MS/MS assay.
Assay [21] has as its target T4, Formamidopyrimidine-DNA glycosylase (Escherichia coli (strain K12)). Description: Inhibition of Escherichia coli FPG assessed as reduction in enzyme-mediated incision using compound pre-incubated with AP-site containing DNA substrate for 30 mins at 37 degC followed by enzyme addition.
The target of assay [22] is T3, N-glycosylase/DNA lyase. As to the kind of experiment: Inhibition of human OGG1 binding to 8-oxo-Gua substrate using compound pre-incubated with enzyme for 5 to 10 mins before substrate addition and further incubated for 5 mins by native gel electrophoresis based by gel-shift assay.
For assay [23], the species on record is Homo sapiens. As to the kind of experiment: Selectivity index, ratio of IC50 for inhibition of NTH1 (unknown origin) incubated for 40 mins by TAMRA fluorescence-based assay to IC50 for inhibition of human OGG1 incubated for 30 mins using 8-oxo-Gua-containing substrate by TAMRA fluorescence-based assay.
For assay [24], the species on record is Homo sapiens. Description: Selectivity index, ratio of IC50 for inhibition of NEIL1 (unknown origin) using Sp/Gh substrate incubated for 40 mins by TAMRA fluorescence-based assay to IC50 for inhibition of human OGG1 incubated for 30 mins using 8-oxo-Gua-containing substrate by TAMRA fluorescence-based assay.
The target in assay [25] is T3, N-glycosylase/DNA lyase. Description: Inhibition of human OGG1 catalytic activity assessed as reduction trapping of substrates at 10 uM using 8-oxo-Gua substrate in presence of sodium cyno-borohydride by gel electrophoresis method.
A short description of assay [26]: Selectivity index, ratio of IC50 for inhibition of Escherichia coli FPG using 8-oxo-Gua substrate incubated for 10 mins by TAMRA fluorescence-based assay to IC50 for inhibition of human OGG1 incubated for 30 mins using 8-oxo-Gua-containing substrate by TAMRA fluorescence-based assay.
Assay [27] concerns the target T3, N-glycosylase/DNA lyase. Description: Inhibition of human OGG1 catalytic activity assessed as reduction trapping of substrates at 10 uM using AP site containing substrate in presence of sodium cyno-borohydride by gel electrophoresis method.

T2 sequence (Q96FI4 whole entry): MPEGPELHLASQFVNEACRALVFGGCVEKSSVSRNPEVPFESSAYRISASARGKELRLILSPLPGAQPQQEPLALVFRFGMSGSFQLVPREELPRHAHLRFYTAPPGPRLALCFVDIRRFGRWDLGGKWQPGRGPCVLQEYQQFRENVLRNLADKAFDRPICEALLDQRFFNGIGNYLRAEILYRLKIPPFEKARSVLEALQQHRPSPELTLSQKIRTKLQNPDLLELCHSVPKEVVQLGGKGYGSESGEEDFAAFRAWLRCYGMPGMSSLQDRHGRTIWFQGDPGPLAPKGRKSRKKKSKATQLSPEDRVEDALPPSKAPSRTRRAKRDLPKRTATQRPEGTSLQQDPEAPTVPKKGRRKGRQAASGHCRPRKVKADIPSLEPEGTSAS

As for `COc1cc(C)c(S(=O)(=O)n2cc(C)nc2-c2ccccc2)cc1C`, the results for the Activity (in assay [1]; at Endonuclease 8-like 1 [2]) were 109% and 100%, respectively. In assay [3], the outcome was inactive.

For the compound `CC[n+]1c(-c2ccccc2)c2cc(N)ccc2c2ccc(N)cc21`, the outcome in assay [3] was Active.

In the case of `NNc1nncc2ccccc12`, on N-glycosylase/DNA lyase [4], the Activity stood at 64%.

Consider `Cc1cc(C(=O)NNCc2ccccc2)no1`, for which the Activity in assay [1] turned out to be 105%; at Endonuclease 8-like 1 [2], 93.3%. The inhibition result on N-glycosylase/DNA lyase [5], at N-glycosylase/DNA lyase [6] and at N-glycosylase/DNA lyase [7] was “inactive” in each case.

As for `O=C(N/N=C/c1ccc(F)cc1)c1sc2ccccc2c1Cl`, the inhibition entry (at Endonuclease 8-like 1 [8]; at Endonuclease 8-like 1 [9]; in assay [10]; in assay [12]; in assay [13]; in assay [15]) was “inactive” throughout. For the same compound, the inhibition result (at Endonuclease 8-like 1 [16]; in assay [17]; in assay [20]; in [21]) was “inactive” throughout. Further, the Activity in assay [1] was 89.2%; at Endonuclease 8-like 1 [2] it was 86.7%; in assay [14] it was 81.7%. The IC50 (against Endonuclease 8-like 1 [11]; in assay [18]; in [19]) was > 50 µM throughout. Besides, in [3], the outcome was inactive.

Regarding `O=C(O)C1=CC(=C(c2ccc(O)c(C(=O)O)c2)c2ccc(O)c(C(=O)O)c2)C=CC1=O`, the inhibition entry at N-glycosylase/DNA lyase [22] was “Active”.

For the compound `O=C(NN=C1CCCCC1)c1cc2ccccc2cc1O`, the Ratio IC50 (in the assay listed under Homo sapiens [23]; in the assay filed under Homo sapiens [24]; in assay [26]) was > 200 in each case. For the same compound, the inhibition entry (at Endonuclease 8-like 1 [8]; on Endonuclease 8-like 1 [9]; in [10]; in [12]; at N-glycosylase/DNA lyase [22]; in [13]) was “inactive” each time. Further, the inhibition result (in assay [15]; at Endonuclease 8-like 1 [16]; in assay [17]; in [20]; in assay [21]) was “inactive” throughout. Further, the Activity in assay [1] is 83%; on Endonuclease 8-like 1 [2] it was 87.4%; on N-glycosylase/DNA lyase [4], 10%; in assay [14] it was 77%. For the same compound, the IC50 (against Endonuclease 8-like 1 [11]; in assay [18]; in assay [19]) was > 50 µM each time. The inhibition result on N-glycosylase/DNA lyase [5], at N-glycosylase/DNA lyase [25], at N-glycosylase/DNA lyase [6], on N-glycosylase/DNA lyase [7] and at N-glycosylase/DNA lyase [27] was “Active” throughout. Besides, in assay [3], the outcome was inactive.

`O=C(NN=C1CCCCC1)c1ccc(Br)cc1`: the inhibition entry (on Endonuclease 8-like 1 [8]; at Endonuclease 8-like 1 [9]; in assay [10]; in [12]; in assay [13]; in assay [15]) was “inactive” each time. For the same compound, the inhibition result (on Endonuclease 8-like 1 [16]; in assay [17]; in [20]; in [21]) was “inactive” throughout. Further, the figures for the Activity (in assay [1]; at Endonuclease 8-like 1 [2]; in [14]) were 84.5%, 97.6% and 91.7%, respectively. In addition, the IC50 (on Endonuclease 8-like 1 [11]; in assay [18]; in [19]) was > 50 µM in each case. Moreover, the result in assay [3] was inactive.

With `CCCN1CCC(=NNC(=O)c2ccc(Cl)cc2Cl)CC1`, the results for the Activity (in assay [1]; on Endonuclease 8-like 1 [2]) were 96.1% and 91.2%, respectively. Moreover, the outcome in [3] was inactive.

For the compound `NNC(=O)COc1cccc2ccccc12`, the values for the Activity (in assay [1]; at Endonuclease 8-like 1 [2]; in assay [14]) were 53.6%, 78.7% and 88.5%, respectively. For the same compound, the outcome in [3] was inactive.

As to `CC1CCCC/C1=N/NC(=O)c1sc2ccccc2c1Cl` (configuration not stated), the inhibition entry (at Endonuclease 8-like 1 [8]; on Endonuclease 8-like 1 [9]; in assay [10]; in assay [12]; in [13]; in assay [15]) was “inactive” in each case. For the same compound, the inhibition result (at Endonuclease 8-like 1 [16]; in assay [17]; in assay [20]; in [21]) was “inactive” in each case. Further, the results for the Activity (in [1]; at Endonuclease 8-like 1 [2]; in [14]) were 94.8%, 82.3% and 87.3%, respectively. Further, the half-inhibitory concentration (IC50) (on Endonuclease 8-like 1 [11]; in assay [18]; in assay [19]) was > 50 µM in each case. In addition, in [3], the result was inactive.

On to `Cc1cc(OCC(=O)NN)cc(C)c1Cl`, for which the Activity in assay [1] stood at 75.1%; on Endonuclease 8-like 1 [2] it was 83.7%; in assay [14] it was 95%. Also, in [3], the result was inactive.

Take `O=C(CCNNC(=O)c1ccncc1)NCc1ccccc1`: the values for the Activity (in [1]; on Endonuclease 8-like 1 [2]) were 108% and 96.4%, respectively.

As to `CCCC/C(C)=N\NC(=O)c1cccc(Br)c1`, the Activity in assay [1] is 92.6%; at Endonuclease 8-like 1 [2], 101%; in [14], 90.9%. The result in assay [3] was inactive.

For the compound `C/C(=N\NC(=O)c1cc2ccccc2cc1O)c1ccc2c(c1)OCO2`, the Activity in [1] was 73%; at Endonuclease 8-like 1 [2], 52%. In addition, the outcome in [3] was inactive.

Regarding `CC(Oc1cccc(Cl)c1)C(=O)NN` (configuration not stated), the Activity in assay [1] stood at 100%; at Endonuclease 8-like 1 [2] it was 95.3%; in [14], 90.8%. For the same compound, the outcome in assay [3] was inactive.

Turning to `C=CCC/C(C)=N\NC(=O)c1cccc(Br)c1`, the Activity amounted to 90.6% in assay [1], 93.5% on Endonuclease 8-like 1 [2] and 78.8% in assay [14]. The result in [3] was inactive.
